Holding throughout (format): cell-based
The subject of one series is human red blood cells. Nature of the series: Hemolysis assay. The method, then:
1-3 mL human blood was centrifuged at 3000 rpm, 4° C. for 10 minutes. The supernatant was discarded. The remaining was washed with cold phosphate buffer saline (PBS) and centrifuged at 3000 rpm, 4° C. for 1 minute. The supernatant was discarded. The remaining red blood cells were washed and diluted as 2% red blood cell solution with cold PBS.
A mixture of 100 μL red blood cell solution and 100 μL PBS was served as a negative control. A mixture of 100 μL red blood cells solution and 100 μL 0.2% Triton X-100 was served as a positive control. The solution of peptide 1, peptide 2, peptide 3, peptide 5, and peptide 6 were respectively mixed with red blood cell solution with the same volume and incubated at 37° C. for 1 hour. After incubation, the mixture was centrifuged at 3000 rpm, 4° C. for 10 minutes. Each of the supernatant was collected to measure the absorbance at wavelength of 405 nm by an ELISA plate reader. The hemolysis of each peptide was calculated according to the following equation, wherein Abs represents the absorbance. [(Abspeptide−AbsPBS)/(AbsTriton X-100−AbsPBS)]×100

Series [1] has as its system Escherichia coli (ATCC 25922). As for the experimental part: (§1) Three bacteria strains, Escherichia coli (ATCC 25922), Staphylococcus aureus (ATCC25923), and Pseudomon asaeruginosa (ATCC27853) were brought from the Food Industry Research and Development Institute, Hsinchu, Taiwan.
(§2) Each of the strain (0.1-0.2 mL) was inoculated on an agar gel medium (Merck, Whitehouse, Station, N.J., USA) and isolated into single colony by streak plate method. Each of the strain was spread evenly by a sterile L-shaped glass rod and incubated overnight. After that, the single colony on each agar gel medium was transferred to liquid LB medium (Merck, Whitehouse, Station, N.J., USA) and incubated at 37° C. in an incubator.
(§3) Each bacteria strain from example 6 was incubated to its mid-log phase at 37° C. in 2 mL Lysogeny broth (LB) in an incubator, wherein the mid-log phase of Escherichia coli is 4 hours, the mid-log phase of Staphylococcus aureus is 6 hours, and the mid-log phase of Pseudomonas aeruginosa is 8 hours. According to 0.5 McFarland Standard, the number of bacteria in a broth is 1×10^8 CFU/mL when the OD595 is 0.08-0.09. […] And then, the number of bacteria in each broth was diluted from 1×10^8 CFU/mL to […]. Finally, each broth has bacterial number of 5×10^5 CFU/mL in Mueller Hinton broth (MHB).
(§4) 199 μL of each of the foresaid diluted broth was respectively placed into a 96 well plate, and 1 μL of each peptide from example 5 was added into each well to incubate at 37° C. in an incubator for 16 hours. The OD595 of the coculture of each broth and each peptide was measured by a microplate spectrophotometer. In addition, the bacterial broth without the peptide served as positive control (PC), and the free broth MHB culture medium served as negative control (NC). The minimum inhibitory concentration (MIC90) of each peptide against each bacteria was measured according to the following equation, wherein A is the absorbance. MIC90≦[(Apeptide−ANC)(APC−ANC)]

Series [2] concerns Staphylococcus aureus (ATCC25923). As for the experimental part:
as §1, §2, §3, §4

The subject of series [3] is Pseudomonas aeruginosa (ATCC27853). As for the experimental part: as §1, §2, §3, §4
Series [4] concerns Escherichia coli (ATCC 25922). The method, then: as §1, §2, §3, §4
(§5) In addition, to measure the minimum bactericidal concentration (MBC), 1 μL of each broth cocultured with the peptide was sprayed on a flat plate medium at 37° C. in an incubator for 24 hours. If the incubation result has no bacteria, the concentration of the reagent is MBC.
The source holds these as a separate data set.

The subject of series [5] is Staphylococcus aureus (ATCC25923). As for the experimental part:
as §1, §2, §3, §4, §5
The source holds these as a separate data set.

In series [6] the test system is Pseudomonas aeruginosa (ATCC27853). The method, then:
as §1, §2, §3, §4, §5
This is another data set of the same source.

Where [7] appears, read: 5×10^5 CFU/mL in MHB, 37° C., 16 hours, OD595.
Setting [8] is: coculture plated on flat plate medium, 37° C., 24 hours, no bacteria.

Values after ≈ are worked out from the molar mass of the structure shown. Where two headings read alike, the source gives them in different places. Where a SMILES comes first, the peptide text is derived from it. Where no end group is shown, it is not given here. [ ]: non-standard residue; d: D form. NMeW = CN[C@@H](Cc1c[nH]c2ccccc12)C(=O)O; NMeR = CN[C@@H](CCCNC(=N)N)C(=O)O

Consider `CC(C)C[C@H](NC(=O)[C@H](Cc1c[nH]c2ccccc12)NC(=O)[C@@H](N)CCCCN)C(=O)N[C@@H](CCCNC(=N)N)C(=O)N[C@@H](CCCNC(=N)N)C(=O)N[C@H](C(=O)N(C)[C@@H](Cc1c[nH]c2ccccc12)C(=O)N[C@@H](CCCNC(=N)N)C(=O)N[C@@H](Cc1c[nH]c2ccccc12)C(=O)N[C@@H](Cc1c[nH]c2ccccc12)C(=O)N[C@@H](CCCNC(=N)N)C(N)=O)C(C)C` [peptide 1, KWLRRVMeWRWWR] (H-KWLRRV[NMeW]RWWR-NH2), for which, in the series with human red blood cells, the “Hemolysis, comparison in words” value is listed as “significantly lower than the peptide 5”. In addition, in the series on human red blood cells (red cells of human, 1 h), the “Hemolysis (%)” value came to 20.1%. Moreover, the “Minimum inhibitory concentration (MIC90) Escherichia coli” value in series [1] (ATCC 25922, 16 h) turned out to be 5 µM (≈ 8.71 µg/mL). In addition, the “Minimum inhibitory concentration (MIC90) Staphylococcus aureus” value in series [2] (ATCC25923, 16 h) came out at 5 µM (≈ 8.71 µg/mL). Also, the “Minimum inhibitory concentration (MIC90) Pseudomonas aeruginosa” value in series [3] (ATCC27853, 16 h) was 10 µM (≈ 17.4 µg/mL). Moreover, the “Minimum bactericidal concentration (MBC99.9) Escherichia coli” value in series [4] (ATCC 25922, 24 h) came out at 20 µM (≈ 34.8 µg/mL). Moreover, in series [5] (ATCC25923, 24 h), the “Minimum bactericidal concentration (MBC99.9) Staphylococcus aureus” value is 40 µM (≈ 69.6 µg/mL). Moreover, the “Minimum bactericidal concentration (MBC99.9) Pseudomonas aeruginosa” value in series [6] (ATCC27853, 24 h) is 10 µM (≈ 17.4 µg/mL).

Turning to `CC(C)C[C@H](NC(=O)[C@H](CCCNC(=N)N)NC(=O)[C@@H](N)CCCCN)C(=O)N[C@@H](CCCNC(=N)N)C(=O)N[C@@H](CCCNC(=N)N)C(=O)N[C@H](C(=O)N(C)[C@@H](Cc1c[nH]c2ccccc12)C(=O)N[C@@H](CCCNC(=N)N)C(=O)N[C@@H](Cc1c[nH]c2ccccc12)C(=O)N[C@@H](Cc1c[nH]c2ccccc12)C(=O)N[C@@H](CCCNC(=N)N)C(N)=O)C(C)C` [peptide 4, KRLRRVMeWRWWR] (H-KRLRRV[NMeW]RWWR-NH2; N-terminus assumed), in series [1] (ATCC 25922, 16 h), the “Minimum inhibitory concentration (MIC90) Escherichia coli” value was 20 µM (≈ 34.2 µg/mL). For the same compound, the “Minimum inhibitory concentration (MIC90) Staphylococcus aureus” value in series [2] (ATCC25923, 16 h) stood at 10 µM (≈ 17.1 µg/mL). Besides, the “Minimum inhibitory concentration (MIC90) Pseudomonas aeruginosa” value in series [3] (ATCC27853, 16 h) was found to be 20 µM (≈ 34.2 µg/mL). The “Minimum bactericidal concentration (MBC99.9) Escherichia coli” value in series [4] (ATCC 25922, 24 h) was found to be 20 µM (≈ 34.2 µg/mL). Moreover, in series [5] (ATCC25923, 24 h), the “Minimum bactericidal concentration (MBC99.9) Staphylococcus aureus” value amounted to 10 µM (≈ 17.1 µg/mL). Moreover, in series [6] (ATCC27853, 24 h), the “Minimum bactericidal concentration (MBC99.9) Pseudomonas aeruginosa” value was determined as 20 µM (≈ 34.2 µg/mL).

With `CC(C)C[C@H](NC(=O)[C@H](Cc1c[nH]c2ccccc12)NC(=O)[C@@H](N)CCCCN)C(=O)N[C@@H](CCCNC(=N)N)C(=O)N(C)[C@@H](CCCNC(=N)N)C(=O)N[C@H](C(=O)N[C@@H](Cc1c[nH]c2ccccc12)C(=O)N[C@@H](CCCNC(=N)N)C(=O)N[C@@H](Cc1c[nH]c2ccccc12)C(=O)N[C@@H](Cc1c[nH]c2ccccc12)C(=O)N[C@@H](CCCNC(=N)N)C(N)=O)C(C)C` [peptide 5, KWLRMeRVWRWWR] (H-KWLR[NMeR]VWRWWR-NH2), the “Hemolysis (%)” value in the series on human red blood cells (red cells of human, 1 h) turned out to be 44.9%.

Consider “KWLRRPWRRWR-NH2 [peptide 2, KWLRRPWRRWR]”, for which the “Hemolysis, comparison in words” value in the series on human red blood cells (comparison among the peptides of Table 4) is on record as “the lowest”. Also, in series [1] (setting [7]), the “Minimum inhibitory concentration (MIC90) Escherichia coli” value came to 2.5 µM. For the same compound, the “Minimum inhibitory concentration (MIC90) Staphylococcus aureus” value in series [2] (setting [7]) came out at 2.5 µM. In series [3] (setting [7]), the “Minimum inhibitory concentration (MIC90) Pseudomonas aeruginosa” value was 5 µM. In series [4] (setting [8]), the “Minimum bactericidal concentration (MBC99.9) Escherichia coli” value was 10 µM. The “Minimum bactericidal concentration (MBC99.9) Staphylococcus aureus” value in series [5] (setting [8]) was determined as 5 µM. In series [6] (setting [8]), the “Minimum bactericidal concentration (MBC99.9) Pseudomonas aeruginosa” value came out at 20 µM.

On to “KWLRRVWRWWR-NH2 [peptide 6, KWLRRVWRWWR]”, for which the “Hemolysis (%)” value in the series on human red blood cells (red cells of human, 1 h) is given as 70.7%. Moreover, the “Minimum inhibitory concentration (MIC90) Escherichia coli” value in series [1] (ATCC 25922, 16 h) was determined as 5 µM. Besides, the “Minimum inhibitory concentration (MIC90) Staphylococcus aureus” value in series [2] (ATCC25923, 16 h) is 5 µM. For the same compound, the “Minimum inhibitory concentration (MIC90) Pseudomonas aeruginosa” value in series [3] (ATCC27853, 16 h) was determined as 5 µM. Besides, in series [4] (ATCC 25922, 24 h), the “Minimum bactericidal concentration (MBC99.9) Escherichia coli” value came out at 5 µM. For the same compound, in series [5] (ATCC25923, 24 h), the “Minimum bactericidal concentration (MBC99.9) Staphylococcus aureus” value was determined as 10 µM. Further, in series [6] (ATCC27853, 24 h), the “Minimum bactericidal concentration (MBC99.9) Pseudomonas aeruginosa” value is 5 µM.

As to “KWLRWVRRRWW-NH2 [peptide 3, KWLRWVRRRWW]”, the “Hemolysis, comparison in words” value with human red blood cells was “the lowest”. Moreover, the “Hemolysis (%)” value in the series on human red blood cells (red cells of human, 1 h) was 3.4%. Also, the “Minimum inhibitory concentration (MIC90) Escherichia coli” value in series [1] (ATCC 25922, 16 h) stood at 2.5 µM. Besides, the “Minimum inhibitory concentration (MIC90) Staphylococcus aureus” value in series [2] (ATCC25923, 16 h) stood at 2.5 µM. In series [3] (ATCC27853, 16 h), the “Minimum inhibitory concentration (MIC90) Pseudomonas aeruginosa” value stood at 5 µM. In addition, in series [4] (ATCC 25922, 24 h), the “Minimum bactericidal concentration (MBC99.9) Escherichia coli” value is 10 µM. Moreover, the “Minimum bactericidal concentration (MBC99.9) Staphylococcus aureus” value in series [5] (ATCC25923, 24 h) was 5 µM. The “Minimum bactericidal concentration (MBC99.9) Pseudomonas aeruginosa” value in series [6] (ATCC27853, 24 h) was found to be 20 µM.

Turning to “Triton X-100 [Positive control, reference compound]”, the “Hemolysis (%)” value in the series on human red blood cells was 100%.

These data come from patent US9802982B2, “Peptide and uses thereof” (Tunghai University, priority 2014, dated 2017).
